Measured values reported in ChEMBL document CHEMBL1125630, “Positional effects of sulfation in hirudin and hirudin PA related anticoagulant peptides” (J Med Chem, 1991).

Assay: In vitro inhibition fibrin clot formation after addition of thrombin.
Type: functional, Homo sapiens

**Q.** Which IC50 does the source give for `CC[C@H](C)[C@H](NC(=O)[C@@H]1CCCN1C(=O)C(CCC(=O)O)NC(=O)[C@H](Cc1ccc(O)cc1)NC(=O)CCC(=O)O)C(=O)N1CCC[C@H]1C(=O)NC(CCC(=O)O)C(=O)NC(CCC(=O)O)C(=O)N[C@@H](Cc1ccc(NS(=O)(=O)O)cc1)C(=O)N[C@@H](CC(C)C)C(=O)NC(CCC(=O)O)C(=O)O` (stereo in doubt) here?
**A.** 0.12 µM

**Q.** For `CC[C@H](C)[C@H](NC(=O)[C@@H]1CCCN1C(=O)C(CCC(=O)O)NC(=O)[C@H](Cc1ccccc1)NC(=O)CCC(=O)O)C(=O)N1CCC[C@H]1C(=O)NC(CCC(=O)O)C(=O)NC(CCC(=O)O)C(=O)N[C@@H](C)C(=O)N[C@@H](Cc1ccc(O)cc1)C(=O)NC(CCC(=O)O)C(=O)O` (stereo in doubt), which IC50 is on record?
**A.** 1.2 µM

**Q.** For `CC[C@H](C)[C@H](NC(=O)[C@@H]1CCCN1C(=O)C(CCC(=O)O)NC(=O)[C@H](Cc1ccc(O)cc1)NC(=O)CCC(=O)O)C(=O)N1CCC[C@H]1C(=O)NC(CCC(=O)O)C(=O)NC(CCC(=O)O)C(=O)N[C@@H](C)C(=O)N[C@@H](Cc1ccc(N)cc1)C(=O)NC(CCC(=O)O)C(=O)O` (stereo in doubt), which IC50 is on record?
**A.** 2.9 µM

**Q.** With `CC[C@H](C)[C@H](NC(=O)[C@@H]1CCCN1C(=O)C(CCC(=O)O)NC(=O)[C@H](Cc1ccc(O)cc1)NC(=O)CCC(=O)O)C(=O)N1CCC[C@H]1C(=O)NC(CCC(=O)O)C(=O)NC(CCC(=O)O)C(=O)N[C@@H](Cc1ccc(N)cc1)C(=O)N[C@@H](CC(C)C)C(=O)NC(CCC(=O)O)C(=O)O` (stereo in doubt) as the molecule, how does the IC50 read?
**A.** 0.38 µM

**Q.** For `CC[C@H](C)[C@H](NC(=O)[C@@H]1CCCN1C(=O)C(CCC(=O)O)NC(=O)[C@H](Cc1ccccc1)NC(=O)CCC(=O)O)C(=O)N1CCC[C@H]1C(=O)NC(CCC(=O)O)C(=O)NC(CCC(=O)O)C(=O)N[C@@H](Cc1ccc(OS(=O)(=O)O)cc1)C(=O)N[C@@H](CC(C)C)C(=O)NC(CCC(=O)O)C(=O)O` (stereo in doubt), which IC50 is on record?
**A.** 0.087 µM

**Q.** With `CC[C@H](C)[C@H](NC(=O)[C@@H]1CCCN1C(=O)C(CCC(=O)O)NC(=O)[C@H](Cc1ccc(O)cc1)NC(=O)CCC(=O)O)C(=O)N1CCC[C@H]1C(=O)NC(CCC(=O)O)C(=O)NC(CCC(=O)O)C(=O)N[C@@H](C)C(=O)N[C@@H](Cc1ccc(NS(=O)(=O)O)cc1)C(=O)NC(CCC(=O)O)C(=O)O` (stereo in doubt) as the molecule, how does the IC50 read?
**A.** 2.5 µM

**Q.** Which IC50 does the source give for `CC[C@H](C)[C@H](NC(=O)[C@@H]1CCCN1C(=O)C(CCC(=O)O)NC(=O)[C@H](Cc1ccc(O)cc1)NC(=O)CCC(=O)O)C(=O)N1CCC[C@H]1C(=O)NC(CCC(=O)O)C(=O)NC(CCC(=O)O)C(=O)N[C@@H](C)C(=O)N[C@@H](Cc1ccc([N+](=O)[O-])cc1)C(=O)NC(CCC(=O)O)C(=O)O` (stereo in doubt) here?
**A.** 0.71 µM

**Q.** Which IC50 does the source give for `CC[C@H](C)[C@H](NC(=O)[C@@H]1CCCN1C(=O)C(CCC(=O)O)NC(=O)[C@H](Cc1ccccc1)NC(=O)CCC(=O)O)C(=O)N1CCC[C@H]1C(=O)NC(CCC(=O)O)C(=O)NC(CCC(=O)O)C(=O)N[C@@H](Cc1ccc(O)cc1)C(=O)N[C@@H](CC(C)C)C(=O)NC(CCC(=O)O)C(=O)O` (stereo in doubt) here?
**A.** 1.6 µM

**Q.** For `CC[C@H](C)[C@H](NC(=O)[C@@H]1CCCN1C(=O)C(CCC(=O)O)NC(=O)[C@H](Cc1ccc(O)cc1)NC(=O)CCC(=O)O)C(=O)N1CCC[C@H]1C(=O)NC(CCC(=O)O)C(=O)NC(CCC(=O)O)C(=O)N[C@@H](Cc1ccc([N+](=O)[O-])cc1)C(=O)N[C@@H](CC(C)C)C(=O)NC(CCC(=O)O)C(=O)O` (stereo in doubt), which IC50 is on record?
**A.** 2.8 µM

**Q.** Which IC50 does the source give for `CC[C@H](C)[C@H](NC(=O)[C@@H]1CCCN1C(=O)C(CCC(=O)O)NC(=O)[C@H](Cc1ccccc1)NC(=O)CCC(=O)O)C(=O)N1CCC[C@H]1C(=O)NC(CCC(=O)O)C(=O)NC(CCC(=O)O)C(=O)N[C@@H](C)C(=O)N[C@@H](Cc1ccc(OS(=O)(=O)O)cc1)C(=O)NC(CCC(=O)O)C(=O)O` (stereo in doubt) here?
**A.** 0.3 µM

**Q.** Which IC50 does the source give for H-GDFEPIPEDAYDE-OH here?
**A.** 2.7 µM
